# Tests used:
# [1] = system: blackgrass; experiment: Test C postemergence; type: in vivo, Alopecurus myosuroides; conditions: Postemergence, 1000 g ai/ha
# Excerpt: (§1) Seeds of plant species selected from barnyardgrass (Echinochloa crusgalli), blackgrass (Alopecurus myosuroides), corn (Zea mays), foxtail, giant (giant foxtail, Setaria faberi), green foxtail (Setaria viridis), goosegrass (Eleusine indica), kochia (Bassia scoparia), oat, wild (wild oat, Avena fatua), pigweed, palmer (palmer amaranth, palmer pigweed, Amaranthus palmeri), Pigweed, Redroot (redroot pigweed, Amaranthus retroflexus), ragweed (common ragweed, Ambrosia artemisiifolia), ryegrass, Italian ([…] ryegrass, Lolium multiflorum), soybean (Glycine max), and wheat (Triticum aestivum) were planted into a blend of loam soil and sand and treated preemergence with a directed soil spray using test chemicals formulated in a non-phytotoxic solvent mixture which included a surfactant. At the same time, plants selected from these crops and weed species and also galium (catchweed bedstraw, Galium aparine) and horseweed (Erigeron canadensis) were planted in pots containing the same blend of loam soil and sand and treated with postemergence applications of test chemicals formulated in the same manner. Plants ranged in height from 2 to 10 cm and were in the one- to two-leaf stage for the postemergence treatment. Treated plants and untreated controls were maintained in a greenhouse for 10 days, after which time all treated plants were compared to untreated controls and visually evaluated for injury. Plant response ratings, summarized in Table C, are based on a 0 to 100 scale where 0 is no effect and 100 is complete control. A dash (-) response means no test result.
# [2] = system: kochia; experiment: Test C preemergence; type: in vivo, Bassia scoparia; conditions: Preemergence, 1000 g ai/ha; visual rating after 10 days, 0 to 100 scale (0 no effect, 100 complete control)
# Excerpt: as §1
# [3] = system: galium; experiment: Test C postemergence; type: in vivo, Galium aparine; conditions: Postemergence, 1000 g ai/ha
# Excerpt: as §1
# [4] = system: ragweed; experiment: Test C preemergence; type: in vivo, Ambrosia artemisiifolia; conditions: Preemergence, 1000 g ai/ha; visual rating after 10 days, 0 to 100 scale (0 no effect, 100 complete control)
# Excerpt: as §1
# [5] = system: ryegrass, Italian; experiment: Test C preemergence; type: in vivo, Lolium multiflorum; conditions: Preemergence, 1000 g ai/ha; visual rating after 10 days, 0 to 100 scale (0 no effect, 100 complete control)
# Excerpt: as §1
# [6] = system: green foxtail; experiment: Test C preemergence; type: in vivo, Setaria viridis; conditions: Preemergence, 1000 g ai/ha; visual rating after 10 days, 0 to 100 scale (0 no effect, 100 complete control)
# Excerpt: as §1
# [7] = system: kochia; experiment: Test C postemergence; type: in vivo, Bassia scoparia; conditions: Postemergence, 1000 g ai/ha
# Excerpt: as §1
# [8] = system: barnyardgrass; experiment: Test C preemergence; type: in vivo, Echinochloa crusgalli; conditions: Preemergence, 1000 g ai/ha; visual rating after 10 days, 0 to 100 scale (0 no effect, 100 complete control)
# Excerpt: as §1
# [9] = system: green foxtail; experiment: Test C postemergence; type: in vivo, Setaria viridis; conditions: Postemergence, 1000 g ai/ha
# Excerpt: as §1
# [10] = system: pigweed, palmer; experiment: Test C preemergence; type: in vivo, Amaranthus palmeri; conditions: Preemergence, 1000 g ai/ha; visual rating after 10 days, 0 to 100 scale (0 no effect, 100 complete control)
# Excerpt: as §1
# [11] = system: blackgrass; experiment: Test C preemergence; type: in vivo, Alopecurus myosuroides; conditions: Preemergence, 1000 g ai/ha; visual rating after 10 days, 0 to 100 scale (0 no effect, 100 complete control)
# Excerpt: as §1
# [12] = system: ragweed; experiment: Test C postemergence; type: in vivo, Ambrosia artemisiifolia; conditions: Postemergence, 1000 g ai/ha
# Excerpt: as §1
# [13] = system: barnyardgrass; experiment: Test C postemergence; type: in vivo, Echinochloa crusgalli; conditions: Postemergence, 1000 g ai/ha
# Excerpt: as §1
# [14] = system: horseweed; experiment: Test C postemergence; type: in vivo, Erigeron canadensis; conditions: Postemergence, 1000 g ai/ha
# Excerpt: as §1
# [15] = system: pigweed, palmer; experiment: Test C postemergence; type: in vivo, Amaranthus palmeri; conditions: Postemergence, 1000 g ai/ha
# Excerpt: as §1
# [16] = system: ryegrass, Italian; experiment: Test C postemergence; type: in vivo, Lolium multiflorum; conditions: Postemergence, 1000 g ai/ha
# Excerpt: as §1
# [17] = 0 to 100 scale, 0 no effect, 100 complete control
# [18] = 10 days, visual 0 to 100 scale (0 no effect, 100 complete control)
SMILES,"Plant response rating, Blackgrass [1, 17]","Plant response rating, Kochia [2]","Plant response rating, Galium [3, 17]","Plant response rating, Ragweed [4]","Plant response rating, Ryegrass, Italian [5]","Plant response rating, Foxtail, Green [6]","Plant response rating, Kochia [7, 17]","Plant response rating, Barnyardgrass [8]","Plant response rating, Foxtail, Green [9, 17]","Plant response rating, Pigweed, Palmer [10]","Plant response rating, Blackgrass [11]","Plant response rating, Ragweed [12, 17]","Plant response rating, Barnyardgrass [13, 17]","Plant response rating, Horseweed [14, 17]","Plant response rating, Pigweed, Palmer [15, 17]","Plant response rating, Ryegrass, Italian [16, 17]","Plant response rating, Blackgrass [1, 18]","Plant response rating, Galium [3, 18]","Plant response rating, Kochia [7, 18]","Plant response rating, Foxtail, Green [9, 18]",other results
Cc1ccc(-c2cccc(C(=O)N3C[C@H](C)Oc4c(Cl)cccc43)c2)o1 [Compound 204],0,20,50,0,40,0,0,0,0,10,0,20,0,0,10,0,–,–,–,–,–
Cc1cccc2c1O[C@@H](C)CN2C(=O)c1cccc(-n2cnc(Cl)c2)c1 [Compound 304],–,10,–,0,90,100,–,60,–,70,70,–,–,–,–,–,30,70,40,20,"Plant response rating, Ragweed [12, 18]: 0; Plant response rating, Barnyardgrass [13, 18]: 10; Plant response rating, Horseweed [14, 18]: 0; Plant response rating, Pigweed, Palmer [15, 18]: 20; Plant response rating, Ryegrass, Italian [16, 18]: 0"
Cc1ccn(-c2cccc(C(=O)N3C[C@H](C)Oc4c(Cl)cccc43)c2)n1 [Compound 206],–,10,–,0,80,20,–,30,–,30,0,–,0,–,–,–,0,40,20,0,"Plant response rating, Ragweed [12, 18]: 0; Plant response rating, Horseweed [14, 18]: 0; Plant response rating, Pigweed, Palmer [15, 18]: 50; Plant response rating, Ryegrass, Italian [16, 18]: 40"
Cc1ccc(-c2cccc(C(=O)N3C[C@H](C)Oc4c(C)cccc43)c2)nn1 [Compound 160],20,70,50,0,40,30,70,30,40,20,0,0,10,0,0,0,–,–,–,–,–
C[C@H]1CN(C(=O)c2cccc(N3CCOCC3)c2)c2cccc(Cl)c2O1 [Compound 166],0,0,20,0,0,0,0,0,0,0,0,0,0,0,10,0,–,–,–,–,–

# From patent US20260262643A1, “HERBICIDAL BENZOXAZINES” (FMC CORPORATION, priority 2022, published 2026)
